Source: the supplement of paper PMC11061612

Legend:
Olaparib = compound: O=C(c1cc(Cc2n[nH]c(=O)c3ccccc23)ccc1F)N1CCN(C(=O)C2CC2)CC1 [Olaparib]; conditions: max 10 µM
Procedure, shortened: (§1)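 Cancer cell lines were dosed for 72 hours (final DMSO typically 0.2%) after 24 hours at 37°C and 5% CO2 in 1536-well plates containing 7.5 μl DMEM/F12 or RPMI with 10% FBS. Viability came from CellTiter-Glo 2.0 luminescence, scaled between blank-well and DMSO-well means, and dose responses were fitted to a two-parameter logistic curve with a non-linear mixed effects model. The single-agent IC50 was obtained from this fit.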

Crizotinib = compound: C[C@@H](Oc1cc(-c2cnn(C3CCNCC3)c2)cnc1N)c1c(Cl)ccc(F)c1Cl [Crizotinib]; conditions: max 10 µM
Procedure, shortened: as §1

Prexasertib = compound: COc1cccc(OCCCN)c1-c1cc(Nc2cnc(C#N)cn2)n[nH]1 [Prexasertib]; conditions: max 1 µM
Procedure, shortened: as §1

Doxorubicin = compound: COc1cccc2c1C(=O)c1c(O)c3c(c(O)c1C2=O)C[C@@](O)(C(=O)CO)C[C@@H]3O[C@H]1C[C@H](N)[C@H](O)[C@H](C)O1 [Doxorubicin]; conditions: max 1 µM
Procedure, shortened: as §1

Alisertib = compound: COc1cc(Nc2ncc3c(n2)-c2ccc(Cl)cc2C(c2c(F)cccc2OC)=NC3)ccc1C(=O)O [Alisertib]; conditions: max 10 µM
Procedure, shortened: as §1

SN-38 = compound: CCc1c2c(nc3ccc(O)cc13)-c1cc3c(c(=O)n1C2)COC(=O)[C@]3(O)CC [SN-38]; conditions: max 0.3 µM
Procedure, shortened: as §1

Trametinib = compound: CC(=O)Nc1cccc(-n2c(=O)n(C3CC3)c(=O)c3c(Nc4ccc(I)cc4F)n(C)c(=O)c(C)c32)c1 [Trametinib]; conditions: max 1 µM
Procedure, shortened: as §1

AZD8186 = compound: C[C@@H](Nc1cc(F)cc(F)c1)c1cc(C(=O)N(C)C)cc2c(=O)cc(N3CCOCC3)oc12 [AZD8186]; conditions: max 10 µM
Procedure, shortened: as §1

AZD1775 = compound: C=CCn1c(=O)c2cnc(Nc3ccc(N4CCN(C)CC4)cc3)nc2n1-c1cccc(C(C)(C)O)n1 [AZD1775]; conditions: max 3 µM
Procedure, shortened: as §1

AZD5153 = compound: COc1nnc2ccc(N3CCC(c4ccc(OCCN5CCN(C)C(=O)[C@H]5C)cc4)CC3)nn12 [AZD5153]; conditions: max 1 µM
Procedure, shortened: as §1

SRA737 = compound: N#Cc1cnc(Nc2cc(NC[C@H]3CNCCO3)c(C(F)(F)F)cn2)cn1 [SRA737]; conditions: max 10 µM
Procedure, shortened: as §1

Selumetinib = compound: Cn1cnc2c(F)c(Nc3ccc(Br)cc3Cl)c(C(=O)NOCCO)cc21 [Selumetinib]; conditions: max 10 µM
Procedure, shortened: as §1

MK-2206 = compound: NC1(c2ccc(-c3nc4ccn5c(=O)[nH]nc5c4cc3-c3ccccc3)cc2)CCC1 [MK-2206]; conditions: max 10 µM
Procedure, shortened: as §1

Taselisib = compound: Cc1nc(-c2cn3c(n2)-c2ccc(-c4cnn(C(C)(C)C(N)=O)c4)cc2OCC3)n(C(C)C)n1 [Taselisib]; conditions: max 10 µM
Procedure, shortened: as §1

Lapatinib = compound: CS(=O)(=O)CCNCc1ccc(-c2ccc3ncnc(Nc4ccc(OCc5cccc(F)c5)c(Cl)c4)c3c2)o1 [Lapatinib]; conditions: max 10 µM
Procedure, shortened: as §1

Gefitinib = compound: COc1cc2ncnc(Nc3ccc(F)c(Cl)c3)c2cc1OCCCN1CCOCC1 [Gefitinib]; conditions: max 10 µM
Procedure, shortened: as §1

Savolitinib = compound: C[C@@H](c1ccc2nccn2c1)n1nnc2ncc(-c3cnn(C)c3)nc21 [Savolitinib]; conditions: max 1 µM
Procedure, shortened: as §1

Dasatinib = compound: CC1=C(C(=CC=C1)Cl)NC(=O)C2=CN=C(S2)NC3=CC(=NC(=N3)C)N4CCN(CC4)CCO [Dasatinib]; conditions: max 2 µM
Procedure, shortened: as §1

SG3199 = compound: CC1=CN2[C@@H](C1)C=NC3=CC(=C(C=C3C2=O)OC)OCCCCCOC4=C(C=C5C(=C4)N=C[C@@H]6CC(=CN6C5=O)C)OC [SG3199]; conditions: max 0.001 µM
Procedure, shortened: as §1

AZD5363 = compound: C1CN(CCC1(C(=O)N[C@@H](CCO)C2=CC=C(C=C2)Cl)N)C3=NC=NC4=C3C=CN4 [AZD5363]; conditions: max 10 µM
Procedure, shortened: as §1

AZD6738 = compound: C[C@@H]1COCCN1C2=NC(=NC(=C2)C3(CC3)[S@](=N)(=O)C)C4=C5C=CNC5=NC=C4 [AZD6738]; conditions: max 10 µM
Procedure, shortened: as §1

AZD4320 = compound: CN(CC[C@H](CSC1=CC=CC=C1)NC2=C(C=C(C=C2)S(=O)(=O)NC(=O)C3=CC=C(C=C3)N4CCC(CC4)[C@H](C5=CC=CC=C5C6=CC=C(C=C6)Cl)O)S(=O)(=O)C(F)(F)F)CCO [AZD4320]; conditions: max 1 µM
Procedure, shortened: as §1

[1] = compound: O=C(Nc1ccc2[nH]nc(-c3ccncc3)c2c1)[C@@H]1CCN(CC(=O)N2CCN(c3ccc(-c4ncccn4)cc3)CC2)C1; conditions: max 5 µM
Procedure, shortened: as §1

Etoposide = compound: COc1cc([C@@H]2c3cc4c(cc3[C@@H](O[C@@H]3O[C@@H]5CO[C@@H](C)O[C@H]5[C@H](O)[C@H]3O)[C@H]3COC(=O)[C@H]23)OCO4)cc(OC)c1O [Etoposide]; conditions: max 10 µM
Procedure, shortened: as §1

Venetoclax = compound: CC1(C)CCC(CN2CCN(c3ccc(C(=O)NS(=O)(=O)c4ccc(NCC5CCOCC5)c([N+](=O)[O-])c4)c(Oc4cnc5[nH]ccc5c4)c3)CC2)=C(c2ccc(Cl)cc2)C1 [Venetoclax]; conditions: max 1 µM
Procedure, shortened: as §1

AZD1390 = compound: CC(C)n1c(=O)n(C)c2cnc3cc(F)c(-c4ccc(OCCCN5CCCCC5)nc4)cc3c21 [AZD1390]; conditions: max 0.3 µM
Procedure, shortened: as §1

Gemcitabine = compound: Nc1ccn([C@@H]2O[C@H](CO)[C@@H](O)C2(F)F)c(=O)n1 [Gemcitabine]; conditions: max 0.3 µM
Procedure, shortened: as §1

AZD0156 = compound: CN(C)CCCOc1ccc(-c2ccc3ncc4c(c3c2)n(C2CCOCC2)c(=O)n4C)cn1 [AZD0156]; conditions: max 3 µM
Procedure, shortened: as §1

AZD5991 = compound: Cc1c2c(nn1C)CSCc1cc(n(C)n1)CSc1cc(c3ccccc3c1)OCCCc1c(C(=O)O)n(C)c3c-2c(Cl)ccc13 [AZD5991]; conditions: max 1 µM
Procedure, shortened: as §1

Paclitaxel = compound: CC(=O)O[C@H]1C(=O)[C@@]2(C)[C@H]([C@H](OC(=O)c3ccccc3)[C@]3(O)C[C@H](OC(=O)[C@H](O)[C@@H](NC(=O)c4ccccc4)c4ccccc4)C(C)=C1C3(C)C)[C@]1(OC(C)=O)CO[C@@H]1C[C@@H]2O [Paclitaxel]; conditions: max 3 µM
Procedure, shortened: as §1

AZD2811 = compound: CCN(CCO)CCCOc1ccc2c(Nc3cc(CC(=O)Nc4cccc(F)c4)[nH]n3)ncnc2c1 [AZD2811]; conditions: max 1 µM
Procedure, shortened: as §1

AZD7648 = compound: Cc1cc2ncnn2cc1Nc1ncc2c(n1)n(C1CCOCC1)c(=O)n2C [AZD7648]; conditions: max 10 µM
Procedure, shortened: as §1

5-Fluorouracil = compound: O=c1[nH]cc(F)c(=O)[nH]1 [5-Fluorouracil]; conditions: max 20 µM
Procedure, shortened: as §1

Palbociclib = compound: CC(=O)c1c(C)c2cnc(Nc3ccc(N4CCNCC4)cn3)nc2n(C2CCCC2)c1=O [Palbociclib]; conditions: max 10 µM
Procedure, shortened: as §1

Carboplatin = compound: C1CC(C1)(C(=O)[O-])C(=O)[O-].N.N.[Pt+2] [Carboplatin]; conditions: max 10 µM
Procedure, shortened: as §1

Cell Line	IC50, cell viability 72 h (Olaparib)	IC50, cell viability 72 h (Crizotinib)	IC50, cell viability 72 h (Prexasertib)	IC50, cell viability 72 h (Doxorubicin)	IC50, cell viability 72 h (Alisertib)	IC50, cell viability 72 h (SN-38)	IC50, cell viability 72 h (Trametinib)	IC50, cell viability 72 h (AZD8186)	IC50, cell viability 72 h (AZD1775)	IC50, cell viability 72 h (AZD5153)	IC50, cell viability 72 h (SRA737)	IC50, cell viability 72 h (Selumetinib)	IC50, cell viability 72 h (MK-2206)	IC50, cell viability 72 h (Taselisib)	IC50, cell viability 72 h (Lapatinib)	IC50, cell viability 72 h (Gefitinib)	IC50, cell viability 72 h (Savolitinib)	IC50, cell viability 72 h (Dasatinib)	IC50, cell viability 72 h (SG3199)	IC50, cell viability 72 h (AZD5363)	IC50, cell viability 72 h (AZD6738)	IC50, cell viability 72 h (AZD4320)	IC50, cell viability 72 h [1]	IC50, cell viability 72 h (Etoposide)	IC50, cell viability 72 h (Venetoclax)	IC50, cell viability 72 h (AZD1390)	IC50, cell viability 72 h (Gemcitabine)	IC50, cell viability 72 h (AZD0156)	IC50, cell viability 72 h (AZD5991)	IC50, cell viability 72 h (Paclitaxel)	IC50, cell viability 72 h (AZD2811)	IC50, cell viability 72 h (AZD7648)	IC50, cell viability 72 h (5-Fluorouracil)	IC50, cell viability 72 h (Palbociclib)	IC50, cell viability 72 h (Carboplatin)
EB-3 (Burkitt's Lymphoma)	> 10000 nM	7290 nM	86.4 nM	194 nM	> 10000 nM	52.9 nM	> 1000 nM	> 10000 nM	555 nM	128 nM	> 10000 nM	> 10000 nM	> 10000 nM	> 10000 nM	> 10000 nM	> 10000 nM	> 1000 nM	> 2000 nM	> 1 nM	> 10000 nM	7040 nM	> 1000 nM	> 5000 nM	1020 nM	> 1000 nM	> 300 nM	> 300 nM	> 3000 nM	> 1000 nM	88.7 nM	> 1000 nM	> 10000 nM	> 20000 nM	> 10000 nM	> 10000 nM
FLO-1 (Esophageal Adenocarcinoma)	> 10000 nM	9360 nM	99.3 nM	225 nM	7300 nM	201 nM	> 1000 nM	> 10000 nM	266 nM	793 nM	> 10000 nM	> 10000 nM	> 10000 nM	8830 nM	> 10000 nM	> 10000 nM	> 1000 nM	64.8 nM	> 1 nM	> 10000 nM	> 10000 nM	> 1000 nM	> 5000 nM	2550 nM	> 1000 nM	> 300 nM	93.8 nM	> 3000 nM	> 1000 nM	5.42 nM	> 1000 nM	> 10000 nM	7080 nM	> 10000 nM	> 10000 nM
KYM-1 (Rhabdomyosarcoma)	> 10000 nM	2940 nM	33.8 nM	485 nM	> 10000 nM	23.5 nM	> 1000 nM	> 10000 nM	926 nM	54.8 nM	846 nM	> 10000 nM	> 10000 nM	> 10000 nM	> 10000 nM	> 10000 nM	> 1000 nM	> 2000 nM	> 1 nM	7860 nM	2640 nM	> 1000 nM	> 5000 nM	668 nM	> 1000 nM	> 300 nM	5.74 nM	> 3000 nM	> 1000 nM	5.57 nM	> 1000 nM	> 10000 nM	8560 nM	522 nM	> 10000 nM
KYSE-70 (Esophageal Squamous Cell Carcinoma)	> 10000 nM	> 10000 nM	241 nM	> 1000 nM	> 10000 nM	> 300 nM	> 1000 nM	> 10000 nM	> 3000 nM	> 1000 nM	> 10000 nM	> 10000 nM	> 10000 nM	4070 nM	> 10000 nM	> 10000 nM	> 1000 nM	> 2000 nM	> 1 nM	> 10000 nM	> 10000 nM	> 1000 nM	> 5000 nM	> 10000 nM	> 1000 nM	> 300 nM	> 300 nM	> 3000 nM	> 1000 nM	> 3000 nM	> 1000 nM	> 10000 nM	> 20000 nM	> 10000 nM	> 10000 nM
LAMA-84 (Chronic Myelogenous Leukemia)	> 10000 nM	527 nM	17.3 nM	> 1000 nM	305 nM	24.6 nM	16.3 nM	> 10000 nM	351 nM	146 nM	2110 nM	1570 nM	5120 nM	> 10000 nM	> 10000 nM	> 10000 nM	> 1000 nM	< 2 nM	> 1 nM	> 10000 nM	2020 nM	486 nM	915 nM	8280 nM	> 1000 nM	> 300 nM	24.6 nM	> 3000 nM	> 1000 nM	37 nM	> 1000 nM	> 10000 nM	> 20000 nM	3090 nM	> 10000 nM
